Measured values from patent publication US20080153792A1, “Drug Identification and Treatment Method” (priority 2006, published 2008).
“Also recorded” adds a separate entry of the source. Like-named read-outs stand apart in the source and are kept apart here.

What was measured:
[1] = test system: NF-κB; assay: NF-κB-bla THP-1 β-lactamase reporter assay; type: cell-based, human
[2] = test system: CD1 male mice, carrageenan-λ induced pleurisy; assay: carrageenan-λ induced lung (pleural cavity) inflammation in mice; type: in vivo, mouse; conditions: for number of neutrophils relative to untreated carrageenan-λ control (100%): 4 h after carrageenan
[3] = test system: MG-63 cells; assay: reversal of glucocorticoid effects in MG-63 osteosarcoma cells; type: cell-based, human
[4] = test system: female SJL mice, EAE; assay: experimental autoimmune encephalomyelitis (EAE), PLP-induced, Example 23; type: in vivo, mouse; conditions: for course of EAE compared to vehicle-treated mice: 0.1 mg q.d. po from clinical onset; for mean cumulative score, treatment period (day 1 to 30): vehicle 24.8±7.8; for mean cumulative score, follow-up period (day 31 to day 54): vehicle 22.7±15.8
[5] = Homo sapiens, THP-1, read-out: IC50, this protocol
[6] = anti-inflammatory activity in this protocol, read-out: IC50
[7] = 0.1 mg q.d. po from clinical onset to day 30
[8] = Homo sapiens, THP-1, read-out: IC50 for inhibition of NF-κB activation, after LPS stimulation, 50% of the maximum inhibition the compound can induce, averages of 2-4 assays
[9] = compounds increased NF-κB activity, read-out: IC50 of compounds that increased NF-κB activity

C[C@]12CC[C@H]3[C@@H](CCC4C[C@H](O)CC[C@@]43C)[C@@H]1C[C@@H](O)[C@@H]2O (stereo partly drawn) [3α,16α,17β-trihydroxyandrostane]
IC50 [1, 5]: 6900 nM

C[C@]12CC[C@H]3[C@@H](CCC4C[C@H](O)CC[C@@]43C)[C@@H]1C[C@H](O)[C@@H]2O (stereo partly drawn) [3α,16β,17β-trihydroxyandrostane]
IC50 [1, 5]: 19000 nM
number of neutrophils relative to untreated carrageenan-λ control (100%) ([2]; 0.001 mg s.c. 24 h and 1 h before carrageenan-λ): 95%
number of neutrophils relative to untreated carrageenan-λ control (100%) ([2]; 0.01 mg s.c. 24 h and 1 h before carrageenan-λ): 50%
number of neutrophils in the pleura ([2]; 0.1 mg and 0.01 mg doses s.c.): significant reduction
number of neutrophils relative to untreated carrageenan-λ control (100%) ([2]; 0.1 mg s.c. 24 h and 1 h before carrageenan-λ): 42%

C[C@]12CC[C@H]3[C@@H](CCC4=C[C@H](O)CC[C@@]43C)[C@@H]1CC[C@@H]2O [3α,17β-dihydroxyandrost-4-ene]
dexamethasone induced 11β-HSD mRNA ([3]; similar protocols): decrease
reversal of dexamethasone-induced suppression of IL-8 and IL-6 ([3]; similar protocols): statistically significant reversal

CC12CCC(O)(C(F)(F)C(F)(F)F)C=C1CCC1C2CCC2(C)C(O)CCC12 (stereo not drawn) [3α-pentafluoroethylandrost-4-ene-3β,17β-diol]
IC50 [1, 6]: 3.1 nM

C[C@]12CC[C@H]3[C@@H](CC=C4C[C@](O)(C(F)(F)C(F)(F)F)CC[C@@]43C)[C@@H]1CC[C@@H]2O [3α-pentafluoroethylandrost-5-ene-3β,17β-diol]
IC50 [1, 6]: 17 nM
maximum NF-κB inhibition ([1]; this protocol): 50%

C[C@]12CC[C@H]3[C@@H](CC=C4C[C@](O)(C(F)(F)F)CC[C@@]43C)[C@@H]1CC[C@@H]2O [3α-trifluoromethylandrost-5-ene-3β,17β-diol]
course of EAE compared to vehicle-treated mice [4]: significantly improved course of EAE
mean cumulative score, treatment period (day 1 to 30) [4, 7]: 11.2±4.8
mean cumulative score, follow-up period (day 31 to day 54) ([4]; after end of treatment): 10.8±10.3

C[C@]12CC[C@H]3[C@@H]([C@H](O)C=C4C[C@@H](O)CC[C@@]43C)[C@@H]1CC[C@@H]2O [3β,7α,17β-trihydroxyandrost-5-ene]
IC50 [1, 8]: > 10000 nM

C[C@]12C[C@H](O)[C@H]3[C@@H]([C@@H](O)C=C4C[C@@H](O)CC[C@@]43C)[C@@H]1CC[C@@H]2O [3β,7β,11β,17β-tetrahydroxyandrost-5-ene]
IC50 [1, 8]: > 10000 nM

C[C@]12CC[C@H](O)CC1=C[C@H](O)[C@@H]1[C@@H]2CC[C@@]2(C)[C@H]1CC[C@]2(C)O [3β,7β,17β-trihydroxy-17α-methylandrost-5-ene]
osteoprotegerin levels in the presence of 30 nM dexamethasone ([3]; 10 nM compound): normal osteoprotegerin levels

CC12CCC(O)CC1=CC(O)C1C2CCC2(C)C1CCC2(O)C(F)(F)F (stereo not drawn) [3β,7β,17β-trihydroxy-17α-trifluoromethylandrost-5-ene]
IC50 ([1]; after LPS stimulation, 50% of the maximum inhibition the compound can induce, averages of 2-4 assays, read-out: IC50 for inhibition of NF-κB activation): > 10000 nM
osteoprotegerin levels in the presence of 30 nM dexamethasone ([3]; 1 μM compound): normal or basal osteoprotegerin levels

C[C@]12CC[C@H](O)CC1=CC[C@@H]1[C@@H]2[C@H](O)C[C@]2(C)C(=O)CC[C@@H]12 [3β,11α-dihydroxy-17-oxoandrost-5-ene]
IC50 [1, 8]: > 10000 nM

C[C@]12CC[C@H]3[C@@H](CC=C4C[C@@H](O)CC[C@@]43C)[C@@H]1CC[C@H]2O [3β,17α-dihydroxyandrost-5-ene]
IC50 [1, 5]: > 10000 nM

C[C@@]1(O)CC[C@@]2(C)[C@@H](CC[C@@H]3[C@@H]2CC[C@@]2(C)[C@H]3CC[C@]2(C)O)C1 [3β,17α-dimethylandrostane-3α,17β-diol]
IC50 [1, 9]: 40 nM

CC(=O)O[C@H]1CC[C@@]2(C)C(=C[C@H](O)[C@H]3[C@@H]4CC[C@H](O)[C@@]4(C)CC(=O)[C@@H]32)C1 [3β-acetoxy-7β,17β-dihydroxy-11-oxoandrost-5-ene]
IC50 [1, 5]: 1000 nM
maximum NF-κB inhibition ([1]; this protocol): 65%

C[C@]12CC[C@H]3[C@@H](CCC4C[C@@H](C(=O)CN)CC[C@@]43C)[C@@H]1CC[C@@H]2O (stereo partly drawn) [3β-glycylandrostane-17β-ol]
IC50 ([1]; Homo sapiens, THP-1, read-out: IC50, anti-inflammatory activity in this protocol): 1 nM

C[C@]12CC[C@H](O)CC1CC(=O)[C@@H]1[C@@H]2CC[C@]2(C)C(=O)CC[C@@H]12 (stereo partly drawn) [3β-hydroxyandrostane-7,17-dione]
IC50 [1, 5]: > 10000 nM

C[C@]12CC[C@H](O)C[C@@H]1CC[C@@H]1[C@@H]2CC[C@]2(C)[C@@H](O)C(=NO)C[C@@H]12 [5α-androstane-3β,17β-diol-16-oxime]
course of EAE compared to vehicle-treated mice [4]: very similar to that observed in the vehicle-treated mice

CC(=O)O[C@@H]1C[C@H]2[C@@H]3[C@@H](O)C=C4C[C@@H](O)CC[C@]4(C)[C@H]3CC[C@]2(C)[C@H]1O [16α-acetoxy-3β,7β,17β-trihydroxyandrost-5-ene]
IC50 ([1]; Homo sapiens, THP-1, after LPS stimulation, 50% of the maximum inhibition the compound can induce, averages of 2-4 assays, read-out: IC50 for inhibition of NF-κB activation): > 10000 nM

C[C@]12CC[C@H]3[C@@H](CC=C4C[C@@H](O)CC[C@@]43C)[C@@H]1C[C@@H](Br)[C@@H]2O [16α-bromo-3β,17β-dihydroxyandrost-5-ene]
IC50 [1, 5]: > 10000 nM

C[C@]12CCCCC1=CC[C@@H]1[C@@H]2CC[C@]2(C)C(=O)[C@H](F)C[C@@H]12 [16α-fluoroandrost-5-ene-17-one]
IC50 [1, 5]: 30000 nM

C[C@]12CCCCC1CC[C@@H]1[C@@H]2CC[C@]2(C)C(=O)[C@H](F)C[C@@H]12 (stereo partly drawn) [16α-fluoroandrostane-17-one]
IC50 [1, 5]: > 10000 nM

C[C@]12CC[C@H](O)CC1=CC[C@@H]1[C@@H]2CC[C@]2(C)C(=O)[C@@H](Br)C[C@@H]12 [16β-bromo-3β-hydroxyandrost-5-ene-17-one]
IC50 [1, 5]: > 10000 nM

C[C@]12CC[C@H](O)C[C@@H]1CC[C@@H]1[C@@H]2CC[C@]2(C)C(=O)[C@@H](Br)C[C@@H]12 [16β-bromoepiandrosterone]
maximum NF-κB inhibition ([1]; this protocol): 100%

C[C@]12CCCCC1=C[C@H](O)[C@@H]1[C@@H]2CC[C@]2(C)C(=O)[C@@H](F)C[C@@H]12 [16β-fluoroandrost-5-ene-7β-ol-17-one]
IC50 [1, 6]: 1.5 nM

C#C[C@]1(O)CC[C@H]2[C@@H]3CCC4=CC(=O)CC[C@]4(C)[C@H]3CC[C@@]21C [17α-ethynylandrost-4-ene-3-one-17β-ol]
maximum NF-κB inhibition ([1]; this protocol): 80%
IC50 ([1]; this protocol, read-out: IC50): 2900 nM

C[C@]12CC[C@H](O)CC1=CC[C@@H]1[C@@H]2CC[C@@]2(C)[C@H]1CC[C@@]2(O)C(F)(F)F [17α-trifluoromethylandrost-5-ene-3β,17β-diol]
course of EAE compared to vehicle-treated mice [4]: significantly improved course of EAE

CC12CCC(O)CC1CCC1C2CCC2(C)C1CCC2(O)C(F)(F)F (stereo not drawn) [17α-trifluoromethylandrostane-3α,17β-diol]
IC50 [1, 6]: 190 nM

C#C[C@@]1(O)CC[C@H]2[C@@H]3[C@@H](O)C=C4C[C@@H](O)CC[C@]4(C)[C@H]3CC[C@@]21C [17β-ethynylandrost-5-ene-3β,7β,17α-triol]
EAE incidence at the end of the treatment period ([4]; 0.1 mg q.d. po): 57.1%
course of EAE compared to vehicle-treated mice [4]: trend toward reduced cumulative score and duration
duration of the disease ([4]; 0.1 mg q.d. po from clinical onset to day 30, vehicle 12.3±4.3): 7 ± 7.9 days
mean cumulative score, treatment period (day 1 to 30) [4, 7]: 14.9±17.6
EAE incidence at the end of the follow-up period ([4]; after end of treatment): 85.7%
mean cumulative score, follow-up period (day 31 to day 54) ([4]; after end of treatment): 18.4±20.6

C[C@]12CC[C@H]3[C@@H](CCC4C[C@@H](O)CC[C@@]43C)[C@@H]1CC[C@@H]2C(=O)CN (stereo partly drawn) [17β-glycylandrostane-3β-ol]
IC50 [1, 5]: 420 nM

Cc1cc(C)c(/C=C2\C(=O)Nc3ccccc32)[nH]1 [SU5416, Z-3-[(2,4-dimethylpyrrol-5-yl)methylidenyl]-2-indolinone, reference compound]
course of EAE compared to vehicle-treated mice [4]: very similar to that observed in the vehicle-treated mice; also recorded: ineffective
mean cumulative score, treatment period (day 1 to 30) [4, 7]: 25.5±8.9
mean cumulative score, follow-up period (day 31 to day 54) ([4]; after end of treatment): 35.5±13.2

C[C@]12CC[C@H]3[C@@H](CC=C4C[C@H](O)CC[C@@]43C)[C@@H]1CC[C@@H]2O [androst-5-ene-3α,17β-diol]
IC50 [1, 5]: > 10000 nM

C[C@]12CC[C@H](O)CC1=C[C@@H](O)[C@@H]1[C@@H]2CC[C@]2(C)C(=O)[C@H](O)C[C@@H]12 [androst-5-ene-3β,7α,16α-triol-17-one]
NF-κB activity compared to control cells ([1]; compound increased NF-κB activity): 140%
IC50 [1, 9]: 1.3 nM

C[C@]12CC[C@H]3[C@@H](C(=NO)C=C4C[C@@H](O)CC[C@@]43C)[C@@H]1CC[C@@H]2O [androst-5-ene-3β,17β-diol-7-oxime]
reversal of the decrease in osteoprotegerin in the presence of 30 nM dexamethasone ([3]; concentration not given): partially reversed

C[C@]12C[C@H](O)[C@H]3[C@@H](CC=C4C[C@@H](O)CC[C@@]43C)[C@@H]1CC[C@@H]2O [androst-5-ene-3β, 11β,17β-triol]
IC50 [1, 5]: > 10000 nM

C[C@]12CC[C@H]3[C@@H](CC=C4C[C@@H](O)CC[C@@]43C)[C@@H]1CC[C@@H]2OC(=O)CCC(=O)O [androst-5-ene-3β-ol-17β-succinyl ester]
IC50 [1, 6]: 0.2 nM

C[C@]12CC[C@H](O)CC1CC[C@@H]1[C@@H]2CC[C@]2(C)C(=NO)[C@@H](O)C[C@@H]12 (stereo partly drawn) [androstane-3β,16β-diol-17-oxime]
IC50 ([1]; this protocol, read-out: IC50): 1900 nM

TNFα
EC50 for activation of NF-κB ([1]; positive control assays, 1 hour β-lactamase substrate incubation): 0.20 ng/mL
